# In PubChem BioAssay (NCI):
#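 Test compounds were applied to cells in 96-well plates for 48 hours at 5 doses. The concentration for full growth arrest is given as TGI.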
# Legend:
# Assay in all cases: inhibition of tumour cell growth, NCI panel, 48 h
# IGROV1 ovarian = system: IGROV1 ovarian
# RXF 393 renal = system: RXF 393 renal
# U251 CNS = system: U251 CNS
# SK-OV-3 ovarian = system: SK-OV-3 ovarian
# K-562 leukemia = system: K-562 leukemia
# UO-31 renal = system: UO-31 renal
# UACC-257 melanoma = system: UACC-257 melanoma
# ACHN renal = system: ACHN renal
# SNB-19 CNS = system: SNB-19 CNS
# MOLT-4 leukemia = system: MOLT-4 leukemia
# DLD-1 colon = system: DLD-1 colon
# LXFL 529 NSCLC = system: LXFL 529 NSCLC
# XF 498 CNS = system: XF 498 CNS
# M14 melanoma = system: M14 melanoma
# HOP-18 NSCLC = system: HOP-18 NSCLC
# CAKI-1 renal = system: CAKI-1 renal
# SK-MEL-2 melanoma = system: SK-MEL-2 melanoma
# SF-539 CNS = system: SF-539 CNS
# A498 renal = system: A498 renal
# SNB-75 CNS = system: SNB-75 CNS
# 786-0 renal = system: 786-0 renal
# HCT-116 colon = system: HCT-116 colon
# NCI-H226 lung = system: NCI-H226 lung
# MALME-3M melanoma = system: MALME-3M melanoma
# OVCAR-8 ovarian = system: OVCAR-8 ovarian
# NCI-H460 lung = system: NCI-H460 lung
# OVCAR-5 ovarian = system: OVCAR-5 ovarian
# LOX IMVI melanoma = system: LOX IMVI melanoma
# SR leukemia = system: SR leukemia
# NCI-H23 lung = system: NCI-H23 lung
# OVCAR-4 ovarian = system: OVCAR-4 ovarian
# HOP-62 NSCLC = system: HOP-62 NSCLC
# OVCAR-3 ovarian = system: OVCAR-3 ovarian
# SW-620 colon = system: SW-620 colon
# DMS 273 small cell lung = system: DMS 273 small cell lung
# CCRF-CEM leukemia = system: CCRF-CEM leukemia
# HL-60(TB) leukemia = system: HL-60(TB) leukemia
# TK-10 renal = system: TK-10 renal
# SF-295 CNS = system: SF-295 CNS
# HCT-15 colon = system: HCT-15 colon
# NCI-H522 lung = system: NCI-H522 lung
# HOP-92 NSCLC = system: HOP-92 NSCLC
# KM20L2 colon = system: KM20L2 colon
# SN12C renal = system: SN12C renal
# M19-MEL melanoma = system: M19-MEL melanoma
# UACC-62 melanoma = system: UACC-62 melanoma
# HCC-2998 colon = system: HCC-2998 colon
# EKVX NSCLC = system: EKVX NSCLC
# SNB-78 CNS = system: SNB-78 CNS
# SK-MEL-28 melanoma = system: SK-MEL-28 melanoma
# SK-MEL-5 melanoma = system: SK-MEL-5 melanoma
# RPMI-8226 leukemia = system: RPMI-8226 leukemia
# HT29 colon = system: HT29 colon
# KM12 colon = system: KM12 colon
# DMS 114 small cell lung = system: DMS 114 small cell lung
# COLO 205 colon = system: COLO 205 colon
# A549 NSCLC = system: A549 NSCLC
# SF-268 CNS = system: SF-268 CNS
smiles,measurement,setting,value
COC1=C(N)C(=O)c2nc(C)ccc2C1=O,TGI,IGROV1 ovarian,23.3 µM
same,TGI,RXF 393 renal,3.08 µM
same,TGI,U251 CNS,5.69 µM
same,TGI,SK-OV-3 ovarian,38.4 µM
same,TGI,K-562 leukemia,> 22.5 µM
same,TGI,UO-31 renal,4 µM
same,TGI,UACC-257 melanoma,2.78 µM
same,TGI,ACHN renal,3.27 µM
same,TGI,SNB-19 CNS,3.83 µM
same,TGI,MOLT-4 leukemia,> 52.9 µM
same,TGI,DLD-1 colon,5.31 µM
same,TGI,LXFL 529 NSCLC,6.21 µM
same,TGI,XF 498 CNS,2.84 µM
same,TGI,M14 melanoma,3.33 µM
same,TGI,HOP-18 NSCLC,3.53 µM
same,TGI,CAKI-1 renal,22.4 µM
same,TGI,SK-MEL-2 melanoma,3.28 µM
same,TGI,SF-539 CNS,3.35 µM
same,TGI,A498 renal,3.57 µM
same,TGI,SNB-75 CNS,3.74 µM
same,TGI,786-0 renal,3.94 µM
same,TGI,HCT-116 colon,3.99 µM
same,TGI,NCI-H226 lung,2.33 µM
same,TGI,MALME-3M melanoma,3.18 µM
same,TGI,OVCAR-8 ovarian,12.4 µM
same,TGI,NCI-H460 lung,4.11 µM
same,TGI,OVCAR-5 ovarian,3.43 µM
same,TGI,LOX IMVI melanoma,2.49 µM
same,TGI,SR leukemia,> 24 µM
same,TGI,NCI-H23 lung,2.95 µM
same,TGI,OVCAR-4 ovarian,3.66 µM
same,TGI,HOP-62 NSCLC,2.94 µM
same,TGI,OVCAR-3 ovarian,3.65 µM
same,TGI,SW-620 colon,3.36 µM
same,TGI,DMS 273 small cell lung,3.84 µM
same,TGI,CCRF-CEM leukemia,> 87.7 µM
same,TGI,HL-60(TB) leukemia,> 26.9 µM
same,TGI,TK-10 renal,16.4 µM
same,TGI,SF-295 CNS,3.18 µM
same,TGI,HCT-15 colon,3.49 µM
same,TGI,NCI-H522 lung,3.21 µM
same,TGI,HOP-92 NSCLC,22.1 µM
same,TGI,KM20L2 colon,5.07 µM
same,TGI,SN12C renal,3.27 µM
same,TGI,M19-MEL melanoma,0.715 µM
same,TGI,UACC-62 melanoma,3.2 µM
same,TGI,HCC-2998 colon,14.5 µM
same,TGI,EKVX NSCLC,6.85 µM
same,TGI,SNB-78 CNS,14.1 µM
same,TGI,SK-MEL-28 melanoma,3.27 µM
same,TGI,SK-MEL-5 melanoma,3.09 µM
same,TGI,RPMI-8226 leukemia,> 40.8 µM
same,TGI,HT29 colon,3.74 µM
same,TGI,KM12 colon,3.68 µM
same,TGI,DMS 114 small cell lung,3.53 µM
same,TGI,COLO 205 colon,3.23 µM
same,TGI,A549 NSCLC,4.57 µM
same,TGI,SF-268 CNS,4.17 µM
